According to PMC4716540 (British Journal of Cancer, 2015):
Entries after “also recorded” stand apart in the source; their conditions may differ.

Key:
[1] = test system: patients with confirmed relapsed/refractory MM, CLL, or NHL; test: Phase I safety and tolerability: adverse events, DLT, MTD, RP2D; type: in vivo, human
[2] = test system: in vitro and in vivo models, including primary MM patient samples; settings: ref Nakashima et al, 2010, Ishii et al, 2012; cited from earlier work

## CCc1c(O)cc(O)c(C(=O)c2ccc(OCCN3CCOCC3)c(OC)c2)c1CC(=O)N(CCOC)CCOC [KW-2478]
[1]; 99 mg m^–2 (n=4)
  Abdominal pain (any AE): 1 (25.0) No. of patients (%)
  Acne (any AE): 0 No. of patients (%)
  Anaemia (any AE): 0 No. of patients (%)
  Anorexia (any AE): 0 No. of patients (%)
  Back pain (any AE): 2 (50.0) No. of patients (%)
  Diarrhoea (any AE): 2 (50.0) No. of patients (%)
  Dizziness (any AE): 0 No. of patients (%)
  Fatigue (any AE): 2 (50.0) No. of patients (%)
  Haemoglobin decreased (any AE): 0 No. of patients (%)
  Hair disorder (any AE): 0 No. of patients (%)
  Headache (any AE): 2 (50.0) No. of patients (%)
  Herpes simplex infection (any AE): 0 No. of patients (%)
  Hypertension (any AE): 1 (25.0) No. of patients (%)
  LRTI (any AE): 0 No. of patients (%)
  Musculoskeletal chest pain (any AE): 1 (25.0) No. of patients (%)
  Nausea (any AE): 1 (25.0) No. of patients (%)
  Oral herpes (any AE): 1 (25.0) No. of patients (%)
  Rhinitis (any AE): 0 No. of patients (%)
  Serious AE: 2 (50) No. of patients (%)
  Treatment-related AE: 3 (75.0) No. of patients (%)
  Vomiting (any AE): 1 (25.0) No. of patients (%)
[1]; 132 mg m^–2 (n=6)
  AE (treatment-emergent): 6 (100.0) No. of patients (%)
  Abdominal pain (any AE): 2 (33.3) No. of patients (%)
  Acne (any AE): 0 No. of patients (%)
  Anaemia (any AE): 0 No. of patients (%)
  Anorexia (any AE): 1 (16.7) No. of patients (%)
  Back pain (any AE): 1 (16.7) No. of patients (%)
  Diarrhoea (any AE): 3 (50.0) No. of patients (%)
  Dizziness (any AE): 1 (16.7) No. of patients (%)
  Fatigue (any AE): 1 (16.7) No. of patients (%)
  Haemoglobin decreased (any AE): 2 (33.3) No. of patients (%)
  Hair disorder (any AE): 0 No. of patients (%)
  Headache (any AE): 4 (66.7) No. of patients (%)
  Herpes simplex infection (any AE): 0 No. of patients (%)
  Hypertension (any AE): 2 (33.3) No. of patients (%)
  LRTI (any AE): 1 (16.7) No. of patients (%)
  Musculoskeletal chest pain (any AE): 2 (33.3) No. of patients (%)
  Nausea (any AE): 2 (33.3) No. of patients (%)
  Oral herpes (any AE): 0 No. of patients (%)
  Rhinitis (any AE): 4 (66.7) No. of patients (%)
  Serious AE: 3 (50.0) No. of patients (%)
  Treatment-related AE: 5 (83.3) No. of patients (%)
  Vomiting (any AE): 3 (50.0) No. of patients (%)
[1]; 176 mg m^–2
  Number of treatment-related AEs per patient (average): 9.2
[1]; 176 mg m^–2 (n=7)
  AE (treatment-emergent): 7 (100.0) No. of patients (%)
  Abdominal pain (any AE): 0 No. of patients (%)
  Acne (any AE): 0 No. of patients (%)
  Anaemia (any AE): 3 (42.9) No. of patients (%)
  Anorexia (any AE): 2 (28.6) No. of patients (%)
  Back pain (any AE): 0 No. of patients (%)
  Diarrhoea (any AE): 4 (57.1) No. of patients (%)
  Dizziness (any AE): 0 No. of patients (%)
  Fatigue (any AE): 4 (57.1) No. of patients (%)
  Haemoglobin decreased (any AE): 0 No. of patients (%)
  Hair disorder (any AE): 0 No. of patients (%)
  Headache (any AE): 2 (28.6) No. of patients (%)
  Herpes simplex infection (any AE): 1 (14.3) No. of patients (%)
  Hypertension (any AE): 0 No. of patients (%)
  LRTI (any AE): 2 (28.6) No. of patients (%)
  Musculoskeletal chest pain (any AE): 1 (14.3) No. of patients (%)
  Nausea (any AE): 0 No. of patients (%)
  Oral herpes (any AE): 1 (14.3) No. of patients (%)
  Rhinitis (any AE): 3 (42.9) No. of patients (%)
  Serious AE: 1 (14.3) No. of patients (%)
  Treatment-related AE: 5 (71.4) No. of patients (%)
  Vomiting (any AE): 1 (14.3) No. of patients (%)
[1]; 14–176 mg m^–2 iv once daily days 1–5 of 14-day cycle, first cycle
  Dose-limiting toxicities (DLTs): no dose-limiting toxicities; also recorded: no DLTs
[1]; all doses
  Changes in haematological or biochemistry values, vital signs, body weight, ECG results: no clinically meaningful changes
  Neurotoxicity and thrombocytopenia: no apparent neurotoxicity nor significant thrombocytopenia
  Tolerability: safe and well tolerated
  Treatment-related AEs ⩾grade 3: rare
[1]; all doses, all cycles
  Total number of treatment-related AEs reported: 127
[1]; all doses, all cycles, 27 patients
  Total number of AEs reported: 282
[1]; all doses, all cycles, N=27
  AE: diarrhoea: 48.1%
  AE: fatigue: 33.3%
  AE: headache: 40.7%
  AE: rhinitis: 40.7%
  Patients reporting AEs: 100%
  Patients reporting treatment-related AEs: 77.8%
[1]; all patients during the study
  Mean blood pressure: no apparent dose-related increase
[1]; doses up to 176 mg m^–2
  Maximum-tolerated dose (MTD): not reached
[1]; lethargy (two episodes) and syncope, QT prolongation, neutrophil decrease
  Grade 3/4 AEs considered possibly treatment-related: five events in three patients
[1]; once daily on days 1–5 every 2 weeks, highest dose tested
  Recommended phase II dose (RP2D): 176 mg m^–2
[1]; per patient, all doses, N=27
  Treatment-related AE: diarrhoea: 33.3%
  Treatment-related AE: dizziness: 7.4%
  Treatment-related AE: fatigue: 29.6%
  Treatment-related AE: headache: 25.9%
  Treatment-related AE: nausea: 14.8%
  Treatment-related AE: vomiting: 7.4%
[1]; two patients, bronchopneumonia and lower respiratory tract infection
  Deaths during the study, relation to study medication: unrelated to study medication
[2]
  Antitumour activity: potent antitumour activity
